Test results reported in the supplement of paper PMC10307832.

Legend:
Test in all cases: relative viability (nuclei count vs DMSO), 5 days (fraction); higher = more cells survive
TGX 221 + Decitabine = compound: CC1=CN2C(=O)C=C(N=C2C(=C1)C(C)NC3=CC=CC=C3)N4CCOCC4 [TGX 221] + Nc1ncn([C@H]2C[C@H](O)[C@@H](CO)O2)c(=O)n1 [Decitabine] (partner 2 µM)
Method in brief: (§1)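 After 5 days of treatment, lung cancer cells in 1536-well plates were fixed and stained in a single step (final 0.05% Triton X-100, 1% formaldehyde, 1 ug/ml Hoechst) and their nuclei counted on 4× images. Treatment had been applied by pin tool the day after seeding as one drug alone or as a fixed anchor-drug dose with five library-drug doses (not always all listed) in √10 steps. Relative viability is the nuclei count of treated wells divided by that of vehicle wells, and values are medians of duplicate plates.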

[1] = compound: C1=CC=C(C(=C1)C2=CC=C(C=C2)C3=CSC4=C3C(=C(C(=O)N4)C#N)O)O + Cc1nc(NC(=O)N2CCC[C@H]2C(N)=O)sc1-c1ccnc(C(C)(C)C(F)(F)F)c1 [Alpelisib] (partner 2 µM)
Method in brief: as §1

[2] = compound: O=C(CCCCCCNC(=O)c1cnc(N(c2ccccc2)c2ccccc2)nc1)NO [Ricolinostat] + CS(=O)(=O)N1CCN(Cc2cc3nc(-c4cccc5[nH]ncc45)nc(N4CCOCC4)c3s2)CC1 [Pictilisib] (partner 1 µM)
Method in brief: as §1

[3] = compound: O=C(CCCCCCNC(=O)c1cnc(N(c2ccccc2)c2ccccc2)nc1)NO [Ricolinostat] + N=C(N)NC(=N)NCCc1ccccc1 [Phenformin] (partner 250 µM)
Method in brief: as §1

Cell Line | relative viability (TGX 221 + Decitabine; first compound 0.08 µM) | relative viability (TGX 221 + Decitabine; first compound 0.253 µM) | relative viability (TGX 221 + Decitabine; first compound 0.8 µM) | relative viability (TGX 221 + Decitabine; first compound 2.53 µM) | relative viability (TGX 221 + Decitabine; first compound 8 µM) | relative viability ([1]; first compound 0.08 µM) | relative viability ([1]; first compound 0.253 µM) | relative viability ([1]; first compound 0.8 µM) | relative viability ([1]; first compound 2.53 µM) | relative viability ([1]; first compound 8 µM) | relative viability ([2]; first compound 0.08 µM) | relative viability ([2]; first compound 0.253 µM) | relative viability ([2]; first compound 0.8 µM) | relative viability ([2]; first compound 2.53 µM) | relative viability ([3]; first compound 0.08 µM) | relative viability ([3]; first compound 0.253 µM) | relative viability ([3]; first compound 0.8 µM) | relative viability ([3]; first compound 2.53 µM)
NCI-H838 | 0.443 | 0.448 | 0.462 | 0.447 | 0.452 | 0.66 | 0.97 | 1.03 | 0.924 | 0.989 | 0.326 | 0.563 | 0.613 | 0.531 | 0.48 | 0.689 | 0.64 | 0.571
NCI-H2085 | 0.59 | 0.524 | 0.548 | 0.414 | 0.451 | 0.872 | 1.08 | 1 | 0.973 | 0.879 |  | 0.447 | 0.431 | 0.416 |  | 0.705 | 0.66 | 0.58
NCI-H3122 | 0.405 | 0.33 | 0.422 | 0.378 | 0.548 | 0.795 | 0.909 | 0.89 | 0.844 | 0.902 | 0.533 | 0.606 | 0.696 | 0.866 |  | 0.378 | 0.369 | 0.318
HCC-15 | 0.699 | 0.648 | 0.636 | 0.591 | 0.709 | 0.976 | 1.03 | 0.943 | 1.01 | 0.819 | 0.647 | 0.79 | 0.779 | 0.617 | 0.411 | 0.509 | 0.486 | 0.496
LU99A | 0.861 | 0.842 | 0.852 | 0.937 | 0.997 | 0.613 | 0.5 | 0.538 | 0.507 | 0.527 | 0.299 | 0.262 | 0.258 | 0.219 | 0.738 | 0.705 | 0.716 | 0.597
UMC-11 | 0.522 | 0.545 | 0.725 | 0.572 | 0.62 | 0.668 | 0.73 | 1.01 | 1.2 | 0.793 | 0.645 | 0.859 | 0.723 | 0.24 | 0.273 | 0.344 | 0.271 | 0.194
NCI-H2405 | 0.72 | 0.729 | 0.75 | 0.68 | 0.615 | 0.761 | 0.834 | 0.867 | 0.715 | 0.715 | 0.389 | 0.494 | 0.412 | 0.277 | 0.356 | 0.44 | 0.416 | 0.358
NCI-H1915 | 0.254 | 0.255 | 0.256 | 0.257 | 0.257 | 1.11 | 1.07 | 1.07 | 1.08 | 0.991 | 0.852 | 0.928 | 0.869 | 0.729 | 0.324 | 0.358 | 0.347 | 0.363
